Assay results: patent EP1038532A1, “IMMUNOMODULATOR AND PHARMACEUTICAL COMPOSITIONS WITH ANTITUMOR PROPERTIES, AND A FOOD ADDITIVE” (Kaljuzhin, Oleg Vitallievich, priority 1997, dated 1998)

Assays:
[1] = tested on: lymphocytes in a mixed lymphocyte culture (MLC); test: Proliferation of lymphocytes in a mixed lymphocyte culture (MLC); format: cell-based; details: mean ± S.D. of six experiments, control 11.9±0.9
From the text: Each value in the table is the mean index of proliferation stimulation of lymphocytes in MLC ± S.D. of six independent experiments.

mouse splenocytes = test: LPS-induced proliferation of mouse splenocytes; format: cell-based; details: LPS stimulation 1 µg/ml, mean ± S.D. of three experiments, control 3.4±0.2
Experimental: Each value in the table is the index of proliferation of lymphocytes in response to stimulation of 1 µg/ml under the influence of MDP derivatives (arithmetical mean ± S.D. of three independent experiments).

IL-1 = IL-1 production by peritoneal macrophages, read out by thymocyte proliferation; format: cell-based, C57BL/6 mouse; details: control 1.3±0.4
From the text: (§1) Each value in the table is the mean ± S.D. of three independent experiments.

TNF = TNF production by peritoneal macrophages, read out by lysis of L929 cells; format: cell-based, C57BL/6 mouse; details: control 7±6
From the text: as §1

[2] = Distribution of 14C-labelled preparations in the water/chloroform model membrane; format: physicochemical
From the text: Marked differences in distribution of 14C-labelled preparations in the phases of this model "membrane" have been found. 64% of C7H15MDP was included in the water phase, and 36% of the preparation in the organic phase. At the same time, the water phase included only 28% of its lipophilic homologue, and the organic phase 72%.

[3] = cholesterol/phosphatidylcholine model lipid membrane
[4] = tested on: human erythroleukemia K562 cells
melanoma B16 = test: Antitumor activity in the mouse melanoma B16 model; format: in vivo, C57BL/6 mice; details: for Inhibition of tumor growth: day 21
Experimental: (§2) Experimental procedures. Briefly, suspension of lymphoma EL-4 or melanoma B16 cells (10^6 cells) was injected subcutaneously into the footpad of C57BL/6 mice. Then mice underwent course of C7H15MDP treatment. Solution of the preparation in phosphate buffer saline (PBS) was administered i.v. or p.o. Single dosage for p.o. administration was of 1 mg/kg in weight, and of 0.5 mg/kg in weight when administered i.v. The preparation was administered twice a week during 3 weeks, beginning immediately after implantation of tumor cells. Besides, some tumor-bearing mice were treated with the preparation encapsulated in liposomes consisting of phosphatidylcholine:phosphatudylserine mixture (7:3).
(§3) Liposomal C7H15MDP in dose of 0.25 mg/kg was administered i.v. by the same schedule that was used with unencapsulated preparation.
(§4) Control mice were treated with PBS without active compound.
(§5) Antitumor effect was estimated using the following criteria: (1) prolongation of life-span, (2) inhibition of tumor growth.

lymphoma EL-4 = test: Antitumor activity in the mouse lymphoma EL-4 model; format: in vivo, C57BL/6 mice; details: for Inhibition of tumor growth: day 21
Experimental: as §2, §3, §4, §5

[5] = tested on: lymphoma EL-4 or melanoma B16; test: Further antitumor trials in tumor-bearing mice (tumor type not specified); format: in vivo, C57BL/6 mice; details: treatment begun 1 week before tumor implantation
Experimental: Experimental procedures. Briefly, suspension of lymphoma EL-4 or melanoma B16 cells (10^6 cells) was injected subcutaneously into the footpad of C57BL/6 mice. […] Solution of the preparation in phosphate buffer saline (PBS) was administered i.v. or p.o. Single dosage for p.o. administration was of 1 mg/kg in weight, and of 0.5 mg/kg in weight when administered i.v. […] Besides, some tumor-bearing mice were treated with the preparation encapsulated in liposomes consisting of phosphatidylcholine:phosphatudylserine mixture (7:3).
as §3
However, all methods of administration (p.o., i.v., liposomal i.v.) seem to be rational. Exact administration method is to be defined individually taking into account localization and type of tumor and other factors.

[6] = i.v., 0.5 mg/kg twice a week during 3 weeks
[7] = p.o., 1 mg/kg twice a week during 3 weeks

Row | Compound | mean index of proliferation stimulation of lymphocytes in MLC ([1]; 5 µM) | mean index of proliferation stimulation of lymphocytes in MLC ([1]; 10 µM) | mean index of proliferation stimulation of lymphocytes in MLC ([1]; 20 µM) | index of proliferation of lymphocytes (mouse splenocytes; 5 µM) | index of proliferation of lymphocytes (mouse splenocytes; 10 µM) | index of proliferation of lymphocytes (mouse splenocytes; 20 µM) | Proliferation of tymocytes cultured with samples of IL-1 (index of proliferation) (IL-1; 5 µM) | Proliferation of tymocytes cultured with samples of IL-1 (index of proliferation) (IL-1; 10 µM) | Proliferation of tymocytes cultured with samples of IL-1 (index of proliferation) (IL-1; 20 µM) | Cytosis of L929 cells by samples of TNF (TNF; 5 µM) [%] | Cytosis of L929 cells by samples of TNF (TNF; 10 µM) [%] | Cytosis of L929 cells by samples of TNF (TNF; 20 µM) [%] | share of preparation included in the organic phase [2] [%] | share of preparation included in the water phase [2] [%] | time at which the preparation appeared in the second water phase [3] [h] | also measured
1 | CCCCCCCCCCCCCCCCO[C@@H]1O[C@H](CO)[C@@H](O)[C@H](O[C@H](C)C(=O)N[C@@H](C)C(=O)N[C@H](CCC(=O)O)C(N)=O)[C@H]1NC(C)=O [C16H33MDP, β-hexadecylglycoside-MDP] | 9.5±1.2 | 7.7±0.4 | 5.9±0.8 | 3.0±0.1 | 2.6±0.3 | 3.0±1.0 | 3.8±0.1 | 3.9±0.4 | 3.9±0.1 | 36±15 | 40±16 | 47±10 | 72 | 28 | 1 | time at which concentration in the second water phase became significant [3]: 6 h; binding to the cells, more intensive than amphiphilic homologue [4]: 50%; time at which cell-associated radioactivity entered the plateau stage [4]: 2 h
2 | CCCCCCCO[C@@H]1O[C@H](CO)[C@@H](O)[C@H](O[C@H](C)C(=O)N[C@@H](C)C(=O)N[C@H](CCC(=O)O)C(N)=O)[C@H]1NC(C)=O [C7H15MDP, β-heptylglycoside-MDP] | 14.5±0.9 | 16.4±0.6 | 15.9±1.4 | 4.4±0.3 | 4.6±0.3 | 4.4±0.3 | 3.8±0.2 | 3.9±0.2 | 4.8±0.2 | 41±2 | 57±8 | 62±5 | 36 | 64 | 24 | Prolongation of life-span (melanoma B16; [6]): 101%; Mean life-span (melanoma B16; i.v., 0.5 mg/kg twice a week during 3 weeks, control (PBS i.v.) 36±3): 74 ± 9 days; Tumor node volume at the day 21 after tumor inoculation (melanoma B16; i.v., 0.5 mg/kg, control (PBS i.v.) 736±51): 494±49 mm^3; Inhibition of tumor growth (melanoma B16; i.v., 0.5 mg/kg): 33%; Prolongation of life-span (melanoma B16; [7]): 70%; Mean life-span (melanoma B16; p.o., 1 mg/kg twice a week during 3 weeks, control (PBS p.o.) 30±4): 51 ± 5 days; Tumor node volume at the day 21 after tumor inoculation (melanoma B16; p.o., 1 mg/kg, control (PBS p.o.) 765±69): 571±65 mm^3; Inhibition of tumor growth (melanoma B16; p.o., 1 mg/kg): 25%; Prolongation of life-span (lymphoma EL-4; [6]): 62%; Mean life-span (lymphoma EL-4; i.v., 0.5 mg/kg twice a week during 3 weeks, control (PBS i.v.) 39±4): 63 ± 5 days; Tumor node volume at the day 21 after tumor inoculation (lymphoma EL-4; i.v., 0.5 mg/kg, control (PBS i.v.) 789±64): 463±52 mm^3; Inhibition of tumor growth (lymphoma EL-4; i.v., 0.5 mg/kg): 41%; Prolongation of life-span (lymphoma EL-4; [7]): 19%; Mean life-span (lymphoma EL-4; p.o., 1 mg/kg twice a week during 3 weeks, control (PBS p.o.) 42±6): 50 ± 7 days; Tumor node volume at the day 21 after tumor inoculation (lymphoma EL-4; p.o., 1 mg/kg, control (PBS p.o.) 842±78): 650±73 mm^3; Inhibition of tumor growth (lymphoma EL-4; p.o., 1 mg/kg): 23%; tumor regression [5]: complete regression of tumor was observed in several cases; time to reach a state of equilibrium between concentrations in water phases from both sides of the model membrane ([3]; first to reach equilibrium): 72 h
